From PubChem BioAssay (NCI)
“And” between values parts separate entries of the source, which are not always exact repeats. Equal entries are not always repeated.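 Cultured in 96-well plates, cells were exposed to test compound for 48 hours across five concentrations. Definition used: TGI = concentration required for complete inhibition of growth.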

Tests used:
Test in all cases: NCI-60 cell line screen, 48 h
BT-549 breast = tested on: BT-549 breast
DU-145 prostate = tested on: DU-145 prostate
EKVX NSCLC = tested on: EKVX NSCLC
HCC-2998 colon = tested on: HCC-2998 colon
HCT-15 colon = tested on: HCT-15 colon
HS 578T breast = tested on: HS 578T breast
M14 melanoma = tested on: M14 melanoma
MDA-MB-231 breast = tested on: MDA-MB-231 breast
MDA-N = tested on: MDA-N
RPMI-8226 leukemia = tested on: RPMI-8226 leukemia
SF-295 CNS = tested on: SF-295 CNS
SK-MEL-28 melanoma = tested on: SK-MEL-28 melanoma
SN12C renal = tested on: SN12C renal
SNB-19 CNS = tested on: SNB-19 CNS
TK-10 renal = tested on: TK-10 renal
HT29 colon = tested on: HT29 colon
NCI/ADR-RES ovarian = tested on: NCI/ADR-RES ovarian
OVCAR-4 ovarian = tested on: OVCAR-4 ovarian
OVCAR-5 ovarian = tested on: OVCAR-5 ovarian
SR leukemia = tested on: SR leukemia

Compound | TGI (BT-549 breast) | TGI (DU-145 prostate) | TGI (EKVX NSCLC) | TGI (HCC-2998 colon) | TGI (HCT-15 colon) | TGI (HS 578T breast) | TGI (M14 melanoma) | TGI (MDA-MB-231 breast) | TGI (MDA-N) | TGI (RPMI-8226 leukemia) | TGI (SF-295 CNS) | TGI (SK-MEL-28 melanoma) | TGI (SN12C renal) | TGI (SNB-19 CNS) | TGI (TK-10 renal) | TGI (HT29 colon) | TGI (NCI/ADR-RES ovarian) | TGI (OVCAR-4 ovarian) | TGI (OVCAR-5 ovarian) | TGI (SR leukemia)
O=C(O)c1ccc(P(=O)(O)c2ccc(C(=O)O)cc2Br)c(Br)c1 | > 100 µM | > 100 µM | > 100 µM | > 100 µM | > 100 µM | > 100 µM | > 100 µM | > 100 µM | > 100 µM | > 100 µM | > 100 µM | > 100 µM | > 100 µM | > 100 µM | > 100 µM | – | – | – | – | –
O=C1c2ccccc2C(O)(C(=O)O)C1(O)CC=C(Cl)Cl (stereo not drawn) | – | – | > 125 µM | > 125 µM | > 125 µM | – | – | – | – | > 125 µM | > 125 µM | > 125 µM | > 125 µM | > 78.9 µM | – | > 125 µM | > 125 µM | > 125 µM | > 125 µM | –
COc1ccc([N+]2=NC(c3ccc([N+](=O)[O-])cc3)=NN(c3ccccc3)C2)cc1 | – | – | > 100 µM | > 100 µM | > 100 µM | – | – | – | – | 80 µM and > 100 µM | > 100 µM | > 100 µM | > 100 µM | > 100 µM | > 100 µM | > 100 µM | – | 75.5 µM and > 100 µM | > 100 µM | > 100 µM
COc1cc(S(=O)(=O)Nc2nc(-c3ccc(N4C(=O)C(CC(=O)O)SC4c4ccccc4O)cc3)cs2)ccc1Cl (stereo not drawn) | – | > 100 µM | – | > 100 µM | > 100 µM | > 100 µM | > 100 µM | > 100 µM | > 100 µM | – | > 100 µM | > 100 µM | > 100 µM | > 100 µM | > 100 µM | > 100 µM | > 100 µM | > 100 µM | > 100 µM | > 100 µM
CN(C)C=C1C(=O)c2c(Br)sc(Br)c2C1=O | 48.4 µM | > 100 µM | 40.5 µM | 25.9 µM | 54.7 µM | 46.9 µM | 33.8 µM | – | 42.1 µM | > 100 µM | 49.7 µM | 31.3 µM | > 100 µM | 80.4 µM | 99.7 µM | 86.5 µM | 73.2 µM | 31.7 µM | 76.2 µM | –
Ic1ncnc2c1ncn2C1CCCO1 (stereo not drawn) | – | – | > 100 µM | > 100 µM | > 100 µM | – | > 100 µM | – | – | > 100 µM | > 100 µM | > 100 µM | > 100 µM | > 100 µM | > 100 µM | > 100 µM | – | > 100 µM | > 100 µM | > 100 µM
N#CC(C#N)N=Cc1ccncc1 | > 100 µM | > 100 µM | > 100 µM | > 100 µM | > 100 µM | – | > 100 µM | > 100 µM | > 100 µM | > 100 µM | > 100 µM | > 100 µM | > 100 µM | – | > 100 µM | > 100 µM | > 100 µM | > 100 µM | > 100 µM | –
CCCCCCCCCCCCCCCCCCNc1ccn(C2OC(COP(=O)(O)OC3CC(n4cc(F)c(=O)[nH]c4=O)OC3COP(=O)(O)OCC3OC(n4ccc(N)nc4=O)C(O)C3O)C(O)C2O)c(=O)n1 (stereo not drawn) | 33.4 µM | 39.8 µM | > 74.6 µM | 27.3 µM | 41.4 µM | > 100 µM | 23.4 µM | > 61.7 µM | – | 71.4 µM | > 51.9 µM | > 100 µM | 98.2 µM | > 57.9 µM | > 100 µM | > 59.4 µM | 53.5 µM | > 100 µM | > 100 µM | 25.6 µM
CN(C)C=Nc1cccc2nsnc12 | > 100 µM | > 100 µM | > 100 µM | – | > 100 µM | > 100 µM | > 100 µM | > 100 µM | > 100 µM | > 100 µM | > 100 µM | > 100 µM | > 100 µM | > 100 µM | > 100 µM | > 100 µM | > 100 µM | > 100 µM | > 100 µM | –
CCN(CC)CCC(=O)NC1c2ccc(Cl)cc2Oc2c(C)cccc21 (stereo not drawn) | 27.1 µM | 32.9 µM | 36.9 µM | 39 µM | 34.6 µM | – | 31.3 µM | 40.8 µM | 32.3 µM | 70.3 µM | 33.9 µM | 27.9 µM | 35.5 µM | 27.1 µM | 27.9 µM | 28.9 µM | 39 µM | 28.9 µM | 29.2 µM | 39.1 µM
COc1cc(OCc2ccc3nc(-c4ccccc4)c(Cl)nc3c2)cc(OC)c1OC | – | > 100 µM | > 100 µM | > 100 µM | > 100 µM | > 100 µM | > 100 µM | > 100 µM | > 100 µM | > 100 µM | > 100 µM | > 100 µM | > 100 µM | > 100 µM | > 100 µM | > 100 µM | > 100 µM | > 100 µM | > 100 µM | > 100 µM
OC(CCN1CCCCC1)(c1ccccc1)c1ccccc1 | > 100 µM | > 100 µM | > 100 µM | – | > 100 µM | – | > 100 µM | > 100 µM | > 100 µM | > 100 µM | > 100 µM | > 100 µM | > 100 µM | > 100 µM | > 100 µM | > 100 µM | > 100 µM | – | > 100 µM | –
COc1cc(S(=O)(=O)Nc2nc(-c3ccc(N4C(=O)CSC4c4cccs4)cc3)cs2)ccc1Cl (stereo not drawn) | – | > 100 µM | – | – | 46.7 µM | > 100 µM | > 100 µM | > 100 µM | > 100 µM | – | > 100 µM | > 100 µM | 77.8 µM | > 100 µM | > 100 µM | > 100 µM | > 100 µM | 97.7 µM | > 100 µM | 96.8 µM
